# According to patent publication US10450593B2, “Type II fatty acid synthesis enzymes in reverse β-oxidation” (William Marsh Rice University, priority 2014, dated 2019):
# Like-named read-outs stand apart in the source and are kept apart here.
# T1: FabI (Escherichia coli, UniProt P0AEK4)
# T1 sequence (P0AEK4 1-262): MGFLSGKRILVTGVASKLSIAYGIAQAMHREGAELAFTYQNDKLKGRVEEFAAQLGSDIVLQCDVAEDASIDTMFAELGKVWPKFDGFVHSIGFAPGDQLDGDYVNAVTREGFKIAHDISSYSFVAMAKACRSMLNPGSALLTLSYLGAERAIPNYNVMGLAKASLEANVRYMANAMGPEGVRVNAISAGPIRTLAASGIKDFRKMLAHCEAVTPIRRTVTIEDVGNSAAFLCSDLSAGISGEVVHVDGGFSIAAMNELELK
# Key:
# FabI [1] = target: T1, FabI; experiment: Inhibition of FabI crotonyl-CoA reduction activity by CoA thioesters; assay type: biochemical, E. coli; details: for inhibitory effect on FabI activity: CoA thioester at 20 or 200 μM
# Text: FIG. 3. Characterization of crotonyl-CoA reduction to butyryl-CoA by FabI. FIG. 3A. Mass spectrum analysis of FabI reduction of crotonyl-CoA to butyryl-CoA. (i) Controls of crotonyl-CoA (836.3 m/z—gray) and butyryl-CoA (838.3 m/z—black). (ii) Reaction mixture without FabI. (iii) Reaction mixture with FabI. FIG. 3B. pH activity profile of FabI with crotonyl-CoA and NADH relative to pH 7.5 (1.0). FIG. 3C. Inhibition profile of crotonyl-CoA reduction activity for FabI with the indicated CoA thioesters at either 20 or 200 μM relative to activity in absence of inhibitor (100%).
# (§1) For measurement of enzymatic activities from fermentation samples, cells were disrupted as previously reported (Dellomonaco, Clomburg, Miller, & Gonzalez, 2011). The HIS Tagged FabI protein was expressed from pCA24N-FabI from the ASKA collection (Kitagawa et al., 2005) in BL21(DE3) cells (NEW ENGLAND BIOLABS™) induced at OD600≈0.4 with 0.1 mM IPTG and shaken O/N at Room Temperature. FabI protein was harvested and purified as previously reported using Talon Metal Affinity Resin (CLONTECH LABORATORIES™) (Clomburg et al., 2012).
# (§2) Thiolase activity (Wiesenborn, Rudolph, & Papoutsakis, 1988) and β-hydroxybutyryl-CoA dehydrogenase activity (Bond-Watts, Bellerose, & Chang, 2011a) were monitored accordingly as previously described (Clomburg et al., 2012). Trans-enoyl-CoA reductase activity for egTER, FabI, bsFabL, efFabK and vcFabV were monitored by loss of NADH (Bond-Watts et al., 2011a; Clomburg et al., 2012). Acyl-CoA dehydrogenase activity was monitored by measuring the reduction of Methyl-Thiazolyl Blue (MTT) coupled to the oxidation of butyryl-CoA (O'Brien & Frerman, 1977) in cellular extracts disrupted as above with the addition of 5 μM flavin adenine dinucleotide (FAD).
# To understand the potential of utilizing FabI for BOX-R, we examined the effect of key CoA thioester intermediates of the BOX-R as well as a broad range of acyl-CoAs on FabI activity […].
# FabI [2] = target: T1, FabI; details: substrate of FabI, Bergler 1994; cited from earlier work
# FabI [3] = target: T1, FabI
# [4] = substrate: C/C=C/C(=O)SCCNC(=O)CCNC(=O)[C@H](O)C(C)(C)COP(=O)(O)OP(=O)(O)OC[C@H]1O[C@@H](n2cnc3c(N)ncnc32)[C@H](O)[C@@H]1OP(=O)(O)O; experiment: Kinetic parameters of purified N-terminal His-tagged FabI with crotonyl-CoA and NADH; assay type: biochemical, E. coli; details: other: substrate of purified FabI, NADH
# Protocol: as §1, §2
# N-terminal His-tagged FabI was purified from an ASKA collection vector (Kitagawa et al., 2005) expressed in the strain BL21(DE3). […] This change in kcat increases the expected rate of crotonyl-CoA reduction by FabI to a value between 1.02×10^−7M s^−1 and 7.86×10^−11 M s^−1, which is in agreement with the rate observed in our cultures. To verify that FabI is utilizing NADH to convert crotonyl-CoA to butyryl-CoA, the reaction was monitored via HPLC-MS, which confirmed that FabI converts crotonyl-CoA almost completely to butyryl-CoA (FIG. 3a).
molecule,measurement,setting,value
CC(O)CC(=O)SCCNC(=O)CCNC(=O)[C@H](O)C(C)(C)COP(=O)(O)OP(=O)(O)OC[C@H]1O[C@@H](n2cnc3c(N)ncnc32)[C@H](O)[C@@H]1OP(=O)(O)O (stereo partly shown) [3-hydroxy-butyryl-CoA],inhibitory effect on FabI activity,FabI [1],minimal inhibitory effects
C/C=C/C(=O)SCCNC(=O)CCNC(=O)[C@H](O)C(C)(C)COP(=O)(O)OP(=O)(O)OC[C@H]1O[C@@H](n2cnc3c(N)ncnc32)[C@H](O)[C@@H]1OP(=O)(O)O [crotonyl-CoA],reported kcat,FabI [2],0.23 s⁻¹
CC(=O)CC(=O)SCCNC(=O)CCNC(=O)[C@H](O)C(C)(C)COP(=O)(O)OP(=O)(O)OC[C@H]1O[C@@H](n2cnc3c(N)ncnc32)[C@H](O)[C@@H]1OP(=O)(O)O [acetoacetyl-CoA],inhibitory effect on FabI activity,FabI [1],minimal inhibitory effects
CCCCCCCCCC(=O)SCCNC(=O)CCNC(=O)C(O)C(C)(C)COP(=O)(O)OP(=O)(O)OC[C@H]1O[C@@H](n2cnc3c(N)ncnc32)[C@H](O)[C@@H]1OP(=O)(O)O (stereo partly shown) [decaonyl-CoA],Ki,"FabI [3]; literature, Helmut Bergler 1996; read-out: Ki towards FabI; cited from earlier work",~900 µM
CCCCCCCCCCCCCCCC(=O)SCCNC(=O)CCNC(=O)[C@H](O)C(C)(C)COP(=O)(O)OP(=O)(O)OC[C@H]1O[C@@H](n2cnc3c(N)ncnc32)[C@H](O)[C@@H]1OP(=O)(O)O [palmitoyl-CoA],Ki,"FabI [3]; read-out: Ki towards FabI; literature, Helmut Bergler 1996; cited from earlier work",20 µM
same,inhibition at 20 µM,FabI [1]; read-out: inhibition of FabI crotonyl-CoA reduction activity,~50%
CCCCCCCCCCCCCC(=O)SCCNC(=O)CCNC(=O)[C@H](O)C(C)(C)COP(=O)(O)OP(=O)(O)OC[C@H]1O[C@@H](n2cnc3c(N)ncnc32)[C@H](O)[C@@H]1OP(=O)(O)O [myristoyl-CoA],percent inhibition of FabI crotonyl-CoA reduction activity,FabI [1]; CoA thioester at 200 μM,highest percent inhibition
FabI (Escherichia coli K-12) (protein) MGFLSGKRILVTGVASKLSIAYGIAQAMHREGAELAFTYQNDKLKGRVEEFAAQLGSDIVLQCDVAEDASIDTMFAELGKVWPKFDGFVHSIGFAPGDQLDGDYVNAVTREGFKIAHDISSYSFVAMAKACRSMLNPGSALLTLSYLGAERAIPNYNVMGLAKASLEANVRYMANAMGPEGVRVNAISAGPIRTLAASGIKDFRKMLAHCEAVTPIRRTVTIEDVGNSAAFLCSDLSAGISGEVVHVDGGFSIAAMNELELK,Km,[4],4.6 ± 0.6 mM
same,kcat,[4],5.3 ± 0.6 s⁻¹
same,kcat/Km,[4],1150 M⁻¹ s⁻¹
